This note sets out measurements from patent US20160108049A1 (TAKEDA Gmbh, priority 2011, published 2016).

Some results are limits rather than exact numbers.

One assay addresses T1, PDE4B1 (Homo sapiens, UniProt Q07343).
T1 construct: made in house; host or cells: SF21 insect cells (baculovirus; virus made in SF9 cells, pCR-Bac vector)
In words: Inhibition of PDE4 activity (PDE4B1, SPA assay). In kind it is biochemical. The settings on record: recombinant PDE4B1, 0.5 μM cAMP; read-out: PDE4B1 Inhibitory values measured as -logIC50 (converted). The method in brief:
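Read-out is SPA yttrium silicate bead scintillation after IBMX-containing beads stop the reaction. Insect-cell (SF21) lysate enzyme hydrolysed 0.5 μM [3H]cAMP at pH 7.4 with 5 mM Mg2+ for 15 min after a 5 min 37 °C preincubation; IC50 fitted by non-linear regression.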

A further assay addresses T2, human PDE5 (Homo sapiens, UniProt O76074).
T2 construct: from tissue; host or cells: human platelets from fresh donor blood (platelet lysate)
Briefly: Inhibition of PDE5 activity (platelet lysate, SPA assay). Format: biochemical. The settings on record: 0.5 μM cGMP, read-out: PDE5 Inhibitory values measured as -logIC50 (converted). The method in brief: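 SPA readout of [3H]cGMP hydrolysis (0.5 μM, 15 min, 37 °C after 5 min preincubation), stopped with yttrium silicate beads containing IBMX. Enzyme was lysate from human platelets, used at 10–20% substrate turnover, with PDE3 (motapizone 1 μM) and PDE2 (10 nM) blockers present. IC50 values fitted non-linearly from concentration-effect curves.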

T1 sequence (Q07343 whole entry): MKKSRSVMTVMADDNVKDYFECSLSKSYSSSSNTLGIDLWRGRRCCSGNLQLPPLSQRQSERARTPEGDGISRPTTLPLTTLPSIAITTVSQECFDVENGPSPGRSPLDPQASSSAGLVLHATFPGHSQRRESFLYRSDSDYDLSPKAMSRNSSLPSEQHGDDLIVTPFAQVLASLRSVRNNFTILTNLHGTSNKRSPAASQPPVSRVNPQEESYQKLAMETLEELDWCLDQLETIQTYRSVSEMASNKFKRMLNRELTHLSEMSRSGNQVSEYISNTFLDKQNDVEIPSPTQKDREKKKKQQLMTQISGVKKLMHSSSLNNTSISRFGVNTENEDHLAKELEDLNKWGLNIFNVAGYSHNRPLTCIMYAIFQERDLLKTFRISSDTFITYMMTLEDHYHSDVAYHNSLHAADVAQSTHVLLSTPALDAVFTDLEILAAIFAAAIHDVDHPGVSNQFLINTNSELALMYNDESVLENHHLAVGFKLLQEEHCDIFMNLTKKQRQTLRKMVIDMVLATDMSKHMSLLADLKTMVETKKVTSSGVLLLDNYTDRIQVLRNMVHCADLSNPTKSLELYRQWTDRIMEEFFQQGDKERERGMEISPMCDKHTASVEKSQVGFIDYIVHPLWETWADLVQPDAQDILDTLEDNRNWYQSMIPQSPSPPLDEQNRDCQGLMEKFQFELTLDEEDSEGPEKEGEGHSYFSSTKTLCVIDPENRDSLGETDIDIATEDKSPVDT

Regarding `COc1ccc(C2=NN(C3CCN(C(=O)[C@H](Cc4ccccc4)NC(=O)c4c[nH]c5c(-c6c(OCC7CC7)ccc7c6OCO7)ncnc45)CC3)C(=O)[C@H]3CCCC[C@@H]23)cc1OC` [Example 44, 4-[5-(cyclopropylmethoxy)-1,3-benzodioxol-4-yl]-N-[(2S)-1-{4-[(4aR,8aS)-4-(3,4-dimethoxyphenyl)-1-oxo-4a,5,6,7,8,8a-hexahydrophthalazin-2(1H)-yl]piperidin-1-yl}-1-oxo-3-phenylpropan-2-yl]-5H-pyrrolo[3,2-d]pyrimidine-7-carboxamide], the IC50 on PDE4B1 was more than 10 nM; on human PDE5, 1 to 10 nM.

For `COc1ccc(C2=NN(C3CCN(C(=O)[C@@H](Cc4ccccc4)NC(=O)c4c[nH]c5c(-c6c(OCC7CC7)ccc7c6OCO7)ncnc45)CC3)C(=O)[C@H]3CCCC[C@@H]23)cc1OC` [Example 45, 4-[5-(cyclopropylmethoxy)-1,3-benzodioxol-4-yl]-N-[(2R)-1-{4-[(4aR,8aS)-4-(3,4-dimethoxyphenyl)-1-oxo-4a,5,6,7,8,8a-hexahydrophthalazin-2(1H)-yl]piperidin-1-yl}-1-oxo-3-phenylpropan-2-yl]-5H-pyrrolo[3,2-d]pyrimidine-7-carboxamide], the values for the IC50 at PDE4B1 and on human PDE5 were more than 10 nM and 1 to 10 nM, respectively.

Regarding `COc1ccc(C2=NN(C3CCN(C(=O)[C@@H](Cc4ccc(C(C)(C)C)cc4)NC(=O)c4c(C)[nH]c5c(-c6c(OCC7CC7)ccc7c6OCO7)ncnc45)CC3)C(=O)[C@@H]3CCCC[C@H]23)cc1OC` [Example 46, N-[(2R)-3-(4-tert-butylphenyl)-1-{4-[(4aS,8aR)-4-(3,4-dimethoxyphenyl)-1-oxo-4a,5,6,7,8,8a-hexahydrophthalazin-2(1H)-yl]piperidin-1-yl}-1-oxopropan-2-yl]-4-[5-(cyclopropylmethoxy)-1,3-benzodioxol-4-yl]-6-methyl-5H-pyrrolo[3,2-d]pyrimidine-7-carboxamide], the IC50 on PDE4B1 and on human PDE5 was 1 to 10 nM throughout.

Take `COc1ccc(C2=NN(C3CCN(C(=O)[C@H](Cc4ccc(F)cc4)NC(=O)c4c[nH]c5c(-c6c(OCC7CC7)ccc7c6OCO7)ncnc45)CC3)C(=O)[C@@H]3CCCC[C@H]23)cc1OC` [Example 47, 4-[5-(cyclopropylmethoxy)-1,3-benzodioxol-4-yl]-N-[(2S)-1-{4-[(4aS,8aR)-4-(3,4-dimethoxyphenyl)-1-oxo-4a,5,6,7,8,8a-hexahydrophthalazin-2(1H)-yl]piperidin-1-yl}-3-(4-fluorophenyl)-1-oxopropan-2-yl]-5H-pyrrolo[3,2-d]pyrimidine-7-carboxamide]: the IC50 at PDE4B1 and on human PDE5 was 1 to 10 nM throughout.

`COc1ccc(C2=NN(C3CCN(C(=O)[C@@H](Cc4ccc(Cl)cc4Cl)NC(=O)c4c[nH]c5c(-c6c(OCC7CC7)ccc7c6OCO7)ncnc45)CC3)C(=O)[C@@H]3CCCC[C@H]23)cc1OC` [Example 48, 4-[5-(cyclopropylmethoxy)-1,3-benzodioxol-4-yl]-N-[(2R)-3-(2,4-dichlorophenyl)-1-{4-[(4aS,8aR)-4-(3,4-dimethoxyphenyl)-1-oxo-4a,5,6,7,8,8a-hexahydrophthalazin-2(1H)-yl]piperidin-1-yl}-1-oxopropan-2-yl]-5H-pyrrolo[3,2-d]pyrimidine-7-carboxamide]: the IC50 on PDE4B1 and at human PDE5 was less than 1 nM each time.

As for `COc1ccc(C2=NN(C3CCN(C(=O)[C@@H](Cc4ccc(C(F)(F)F)cc4)NC(=O)c4c[nH]c5c(-c6c(OCC7CC7)ccc7c6OCO7)ncnc45)CC3)C(=O)[C@@H]3CCCC[C@H]23)cc1OC` [Example 49, 4-[5-(cyclopropylmethoxy)-1,3-benzodioxol-4-yl]-N-{(2R)-1-{4-[(4aS,8aR)-4-(3,4-dimethoxyphenyl)-1-oxo-4a,5,6,7,8,8a-hexahydrophthalazin-2(1H)-yl]piperidin-1-yl}-1-oxo-3-[4-(trifluoromethyl)phenyl]propan-2-yl}-5H-pyrrolo[3,2-d]pyrimidine-7-carboxamide], the IC50 on PDE4B1 and at human PDE5 was 1 to 10 nM each time.

As for `COc1ccc(C2=NN(C3CCN(C(=O)[C@H](NC(=O)c4c[nH]c5c(-c6c(OCC7CC7)ccc7c6OCO7)ncnc45)[C@H](C)c4ccccc4)CC3)C(=O)[C@@H]3CCCC[C@H]23)cc1OC` [Example 50, 4-[5-(cyclopropylmethoxy)-1,3-benzodioxol-4-yl]-N-[(2R,3R)-1-{4-[(4aS,8aR)-4-(3,4-dimethoxyphenyl)-1-oxo-4a,5,6,7,8,8a-hexahydrophthalazin-2(1H)-yl]piperidin-1-yl}-1-oxo-3-phenylbutan-2-yl]-5H-pyrrolo[3,2-d]pyrimidine-7-carboxamide], the values for the IC50 at PDE4B1 and on human PDE5 were less than 1 nM and 1 to 10 nM, respectively.

On to `COc1ccc(C2=NN(C3CCN(C(=O)[C@H](NC(=O)c4c(C)[nH]c5c(-c6c(OCC7CC7)ccc7c6OCO7)ncnc45)[C@H](C)c4ccccc4)CC3)C(=O)[C@@H]3CCCC[C@H]23)cc1OC` [Example 51, 4-[5-(cyclopropylmethoxy)-1,3-benzodioxol-4-yl]-N-[(2R,3R)-1-{4-[(4aS,8aR)-4-(3,4-dimethoxyphenyl)-1-oxo-4a,5,6,7,8,8a-hexahydrophthalazin-2(1H)-yl]piperidin-1-yl}-1-oxo-3-phenylbutan-2-yl]-6-methyl-5H-pyrrolo[3,2-d]pyrimidine-7-carboxamide], for which the IC50 on PDE4B1 is less than 1 nM; at human PDE5, 1 to 10 nM.

`COc1ccc(C2=NN(C3CCN(C(=O)[C@@H](Cc4ccc(O)cc4)NC(=O)c4c[nH]c5c(-c6c(OCC7CC7)ccc7c6OCO7)ncnc45)CC3)C(=O)[C@@H]3CCCC[C@H]23)cc1OC` [Example 52, 4-[5-(cyclopropylmethoxy)-1,3-benzodioxol-4-yl]-N-[(2R)-1-{4-[(4aS,8aR)-4-(3,4-dimethoxyphenyl)-1-oxo-4a,5,6,7,8,8a-hexahydrophthalazin-2(1H)-yl]piperidin-1-yl}-3-(4-hydroxyphenyl)-1-oxopropan-2-yl]-5H-pyrrolo[3,2-d]pyrimidine-7-carboxamide]: the IC50 on PDE4B1 and on human PDE5 was less than 1 nM in each case.

On to `COc1ccc(C2=NN(C3CCN(C(=O)[C@H](Cc4ccc(O)cc4)NC(=O)c4c[nH]c5c(-c6c(OCC7CC7)ccc7c6OCO7)ncnc45)CC3)C(=O)[C@@H]3CCCC[C@H]23)cc1OC` [Example 53, 4-[5-(cyclopropylmethoxy)-1,3-benzodioxol-4-yl]-N-[(2S)-1-{4-[(4aS,8aR)-4-(3,4-dimethoxyphenyl)-1-oxo-4a,5,6,7,8,8a-hexahydrophthalazin-2(1H)-yl]piperidin-1-yl}-3-(4-hydroxyphenyl)-1-oxopropan-2-yl]-5H-pyrrolo[3,2-d]pyrimidine-7-carboxamide], for which the IC50 is less than 1 nM on PDE4B1 and 1 to 10 nM at human PDE5.

With `COc1ccc(C2=NN(C3CCN(C(=O)[C@@H](Cc4ccccc4)NC(=O)c4c[nH]c5c(-c6c(OCC7CC7)ccc7c6OCO7)ncnc45)CC3)C(=O)[C@@H]3CCC[C@H]23)cc1OC` [Example 55, 4-[5-(cyclopropylmethoxy)-1,3-benzodioxol-4-yl]-N-[(2R)-1-{4-[(4aS,7aR)-4-(3,4-dimethoxyphenyl)-1-oxo-1,4a,5,6,7,7a-hexahydro-2H-cyclopenta[d]pyridazin-2-yl]piperidin-1-yl}-1-oxo-3-phenylpropan-2-yl]-5H-pyrrolo[3,2-d]pyrimidine-7-carboxamide], the IC50 on PDE4B1 and on human PDE5 was 1 to 10 nM in each case.

As for `COc1ccc(C2=NN(C3CCN(C(=O)CNC(=O)c4c[nH]c5c(-c6c(OCC7CC7)ccc7c6OCO7)ncnc45)CC3)C(=O)[C@@H]3CCCC[C@H]23)cc1OC` [Example 59, 4-[5-(cyclopropylmethoxy)-1,3-benzodioxol-4-yl]-N-(2-{4-[(4aS,8aR)-4-(3,4-dimethoxyphenyl)-1-oxo-4a,5,6,7,8,8a-hexahydrophthalazin-2(1H)-yl]piperidin-1-yl}-2-oxoethyl)-5H-pyrrolo[3,2-d]pyrimidine-7-carboxamide], the results for the IC50 at PDE4B1 and on human PDE5 were less than 1 nM and 1 to 10 nM, respectively.

With `COc1ccc(C2=NN(C3CCN(C(=O)[C@H](CO)NC(=O)c4c[nH]c5c(-c6c(OCC7CC7)ccc7c6OCO7)ncnc45)CC3)C(=O)[C@@H]3CCCC[C@H]23)cc1OC` [Example 60, 4-[5-(cyclopropylmethoxy)-1,3-benzodioxol-4-yl]-N-[(2S)-1-{4-[(4aS,8aR)-4-(3,4-dimethoxyphenyl)-1-oxo-4a,5,6,7,8,8a-hexahydrophthalazin-2(1H)-yl]piperidin-1-yl}-3-hydroxy-1-oxopropan-2-yl]-5H-pyrrolo[3,2-d]pyrimidine-7-carboxamide], the IC50 was less than 1 nM at PDE4B1 and 1 to 10 nM at human PDE5.

Turning to `COc1ccc(C2=NN(C3CCN(C(=O)[C@H](C)NC(=O)c4c[nH]c5c(-c6c(OCC7CC7)ccc7c6OCO7)ncnc45)CC3)C(=O)[C@@H]3CCCC[C@H]23)cc1OC` [Example 61, 4-[5-(cyclopropylmethoxy)-1,3-benzodioxol-4-yl]-N-[(2S)-1-{4-[(4aS,8aR)-4-(3,4-dimethoxyphenyl)-1-oxo-4a,5,6,7,8,8a-hexahydrophthalazin-2(1H)-yl]piperidin-1-yl}-1-oxopropan-2-yl]-5H-pyrrolo[3,2-d]pyrimidine-7-carboxamide], the IC50 was less than 1 nM at PDE4B1 and 1 to 10 nM at human PDE5.
